Where “and” joins values, the source holds several entries; their conditions need not be identical. Identical values can stand only once.
What was measured:
Assay type in all cases: cell-based
human ER-α = target: T1, human ER-α (Homo sapiens, UniProt P03372); assay: Inhibition of IL-6 release from U-2 OS osteosarcoma cells stably transfected with human ER-α; conditions: IL-6 production (ELISA) after 2.5 ng/ml TNFα and 1 ng/ml IL-1β stimulation, 24 h; compound 0.01–1000 nM; vehicle = 100%; read-out: IC50 (nM) U2 OS (ER-α)
T1 construct: stably transfected with expression vectors for human full-length ER-α or ER-β; expressed in transfected cells
T1 sequence (P03372 1-595): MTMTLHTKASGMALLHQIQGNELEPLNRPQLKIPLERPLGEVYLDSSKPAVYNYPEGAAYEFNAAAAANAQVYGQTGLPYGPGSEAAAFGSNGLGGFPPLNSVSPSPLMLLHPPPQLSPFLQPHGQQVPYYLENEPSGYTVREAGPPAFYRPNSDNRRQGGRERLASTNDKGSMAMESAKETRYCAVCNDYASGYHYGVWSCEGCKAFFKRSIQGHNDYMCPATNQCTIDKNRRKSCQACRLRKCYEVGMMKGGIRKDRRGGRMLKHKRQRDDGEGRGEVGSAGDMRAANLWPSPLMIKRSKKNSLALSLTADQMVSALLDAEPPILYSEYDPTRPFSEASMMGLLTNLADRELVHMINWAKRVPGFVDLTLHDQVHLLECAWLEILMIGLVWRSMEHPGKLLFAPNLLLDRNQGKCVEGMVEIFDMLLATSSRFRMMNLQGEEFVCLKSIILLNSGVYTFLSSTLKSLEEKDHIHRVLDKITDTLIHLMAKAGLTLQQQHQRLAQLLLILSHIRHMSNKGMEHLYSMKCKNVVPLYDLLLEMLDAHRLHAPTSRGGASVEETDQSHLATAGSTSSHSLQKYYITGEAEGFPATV
Description: (§1) Illustrative Benzopyranone Compounds were tested for their ability to inhibit IL-6 release from human U-2 OS osteosarcoma cells stably transfected with human ER-α or ER-β. (Stein, B.; Yang, M. X. Mol. Cell. Biol 15: 4971–4979, 1995; Poli, V. et. al., EMBO J. 13:1189–1196, 1994). […] Benzopyranone Compounds having an IC50<100 nM are particularly useful as bone resorption inhibitors in vivo. Accordingly, the Benzopyranone Compounds, are particularly useful for the treatment of osteoporosis, Paget's disease and metastatic bone cancer. These Benzopyranone Compounds are also useful as anti-cancer agents, since elevated IL-6 levels are responsible for certain cancers such as multiple myeloma, prostate cancer, ovarian cancer, renal carcinoma and cervical carcinoma.
(§2) Human U-2 OS osteosarcoma cells (ATCC) were stably transfected with expression vectors for human full-length ER-α or ER-β using standard molecular biology techniques. Stable subclones were generated that expressed high levels of ER-α or ER-β mRNA. The expression of ER-α or ER-β was confirmed using RNase protection analysis.
(§3) Cells were plated into 96-well plates at a density of 80,000 cells per well in phenol red-free media with charcoal-stripped fetal calf serum. Twenty four hours later, cells were either treated with vehicle (0.2% DMSO) or a Benzopyranone Compound (0.01–1000 nm in 0.2% DMSO). Thirty minutes later cells were stimulated with 2.5 ng/ml TNFα and 1 ng/ml IL-1β. Twenty-four hours later the media supernatant was analyzed for cytokine production (IL-6) using commercially available ELISA kits following the manufacturer's instructions. Cytokine production in the presence of vehicle (0.2% DMSO) was set to 100%.
(§4) The results (Table 2) are expressed as an IC50 (nM) value which is the concentration of the Benzopyranone Compound sufficient to inhibit the production of IL-6 50% relative to the amount of IL-6 produced in the presence of vehicle.

human ER-β = target: T2, human ER-β (Homo sapiens, UniProt Q92731); assay: Inhibition of IL-6 release from U-2 OS osteosarcoma cells stably transfected with human ER-β; conditions: IL-6 production (ELISA) after 2.5 ng/ml TNFα and 1 ng/ml IL-1β stimulation, 24 h; compound 0.01–1000 nM; vehicle = 100%; read-out: IC50 (nM) U2 OS (ER-β)
T2 construct: stably transfected with expression vectors for human full-length ER-α or ER-β; expressed in transfected cells
Description: as §1, §2, §3, §4

[1] = test system: MCF-7 breast cancer cells; assay: Inhibition of 17β-estradiol-dependent MCF-7 breast cancer cell proliferation (3H-thymidine incorporation); conditions: Homo sapiens, MCF7; with 0.1 nM 17β-estradiol, 72 h, then 3H-thymidine 4 h; compound 0.1–1000 nM
Description: MCF-7 cells represent an excellent in vitro system to study the effects of compounds on estrogen-dependent breast cancer growth. (May, F. E. B.; Westley, B. R. J. Biol. Chem. 262:15894–15899, 1987). Benzopyranone Compounds having an IC50<100 nM are particularly useful as anti-breast cancer agents in vivo.
MCF-7 breast carcinoma cells were plated in 24-well dishes at a density of 5×10^3 cells/well in phenol-red free DMEM:F-12 (1:1) medium containing 1% antibiotics, 0.05% mercaptoethanol, 0.01% ethanolamine, 0.42 ng/mL sodium selenite and 5% charcoal-stripped FCS.
Illustrative Benzopyranone Compounds (0.1–1000 nM in 0.2% DMSO) and 0.1 nM 17β-estradiol were added to the cultured MCF-7 breast cancer cells for 72 h. Subsequently, ^3H-labeled thymidine was added and its incorporation into cells was measured following 4 h incubation. The results (Table 2) are expressed as an IC50 (nM) value which is the concentration of the Benzopyranone Compound sufficient to inhibit the growth of MCF-7 breast cancer cells by 50% relative to controls.

T2 sequence (Q92731 whole entry): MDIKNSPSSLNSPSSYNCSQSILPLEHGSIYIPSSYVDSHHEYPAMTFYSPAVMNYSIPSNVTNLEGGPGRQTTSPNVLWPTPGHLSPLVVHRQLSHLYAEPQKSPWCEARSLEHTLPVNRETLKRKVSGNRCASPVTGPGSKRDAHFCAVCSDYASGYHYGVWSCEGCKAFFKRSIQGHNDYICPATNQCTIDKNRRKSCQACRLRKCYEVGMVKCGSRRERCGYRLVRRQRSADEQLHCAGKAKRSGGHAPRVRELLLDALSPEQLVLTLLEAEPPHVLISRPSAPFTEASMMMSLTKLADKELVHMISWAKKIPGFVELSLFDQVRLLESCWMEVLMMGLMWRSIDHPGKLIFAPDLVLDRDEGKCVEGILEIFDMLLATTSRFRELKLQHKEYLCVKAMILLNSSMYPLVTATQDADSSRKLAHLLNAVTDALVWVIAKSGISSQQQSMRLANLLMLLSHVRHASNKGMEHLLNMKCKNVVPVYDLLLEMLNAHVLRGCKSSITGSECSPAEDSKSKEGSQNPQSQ

| IC50 (human ER-α) | IC50 (human ER-β) [nM] | IC50 [1] [nM] | SMILES |
| --- | --- | --- | --- |
| 55.5 nM | < 1000 | 235 | Cc1c(O)ccc2c(Cc3ccc(OCCN4CCCC4)cc3)c(-c3ccc(C(F)(F)F)cc3)c(=O)oc12 |
| 390 nM | > 1000 | – | N#Cc1c(O)ccc2c(Cc3ccc(OCCN4CCCC4)cc3)c(-c3ccc(C(F)(F)F)cc3)c(=O)oc12 |
| 39 nM | < 1000 | 185 | CC(=O)c1c(O)ccc2c(Cc3ccc(OCCN4CCCC4)cc3)c(-c3ccc(C(F)(F)F)cc3)c(=O)oc12 |
| 310 nM and > 1000 nM | > 1000 | > 1000 | O=c1oc2cc(O)c(Br)cc2c(Cc2ccc(OCCN3CCCC3)cc2)c1-c1ccc(C(F)(F)F)cc1 |
| 850 nM and > 1000 nM | > 1000 | > 1000 | CC(=O)c1cc2c(Cc3ccc(OCCN4CCCC4)cc3)c(-c3ccc(C(F)(F)F)cc3)c(=O)oc2cc1O |
| 850 nM and > 1000 nM | > 1000 | – | CC(O)c1cc2c(Cc3ccc(OCCN4CCCC4)cc3)c(-c3ccc(C(F)(F)F)cc3)c(=O)oc2cc1O (stereo not shown) |
| 6.9 nM | < 1000 | 35 | Cc1c(O)ccc2c(Cc3ccc(OCCN4CCCC4)cc3)c(-c3ccc(Cl)cc3Cl)c(=O)oc12 |
| 13.3 nM | > 1000 | 59.5 | Cc1cc2c(Cc3ccc(OCCN4CCCC4)cc3)c(-c3ccc(C(F)(F)F)cc3)c(=O)oc2cc1O |
| 5 nM | < 1000 | 112 | CC(=O)c1c(O)ccc2c(Cc3ccc(OCCN4CCCC4)cc3)c(-c3ccc(Cl)cc3Cl)c(=O)oc12 |
| 1.7 nM | > 1000 | 10 | Cc1cc2c(Cc3ccc(OCCN4CCCC4)cc3)c(-c3ccc(Cl)cc3Cl)c(=O)oc2cc1O |
| 285 nM | < 1000 | < 1000 | Cc1c(O)ccc2c(Cc3ccc(OCCN4CCCC4)cc3)c(-c3ccc(Cl)cc3)c(=O)oc12 |

Source: patent US7247646B2, “Benzopyranone compounds, compositions thereof, and methods of treatment therewith” (Signal Pharmaceuticals, LLC, priority 2003, dated 2007)
